# Source: ChEMBL document CHEMBL1201862, “PubChem BioAssay data set” (2004)
# Activity calls are given as the source filed them. Rule as the data show it: actives have a measured IC50 and inactives only a lower limit.
# Target: Envelope glycoprotein gp160 (Human immunodeficiency virus 1, UniProt Q6QLK5)
# Assay: cell-free HIV fusion peptide-binding blockers – biochemical, uHTS, fluorescence dequenching, […] (AID 1986)
# Sequence of Envelope glycoprotein gp160 (Q6QLK5 whole entry, the tested form may be a part): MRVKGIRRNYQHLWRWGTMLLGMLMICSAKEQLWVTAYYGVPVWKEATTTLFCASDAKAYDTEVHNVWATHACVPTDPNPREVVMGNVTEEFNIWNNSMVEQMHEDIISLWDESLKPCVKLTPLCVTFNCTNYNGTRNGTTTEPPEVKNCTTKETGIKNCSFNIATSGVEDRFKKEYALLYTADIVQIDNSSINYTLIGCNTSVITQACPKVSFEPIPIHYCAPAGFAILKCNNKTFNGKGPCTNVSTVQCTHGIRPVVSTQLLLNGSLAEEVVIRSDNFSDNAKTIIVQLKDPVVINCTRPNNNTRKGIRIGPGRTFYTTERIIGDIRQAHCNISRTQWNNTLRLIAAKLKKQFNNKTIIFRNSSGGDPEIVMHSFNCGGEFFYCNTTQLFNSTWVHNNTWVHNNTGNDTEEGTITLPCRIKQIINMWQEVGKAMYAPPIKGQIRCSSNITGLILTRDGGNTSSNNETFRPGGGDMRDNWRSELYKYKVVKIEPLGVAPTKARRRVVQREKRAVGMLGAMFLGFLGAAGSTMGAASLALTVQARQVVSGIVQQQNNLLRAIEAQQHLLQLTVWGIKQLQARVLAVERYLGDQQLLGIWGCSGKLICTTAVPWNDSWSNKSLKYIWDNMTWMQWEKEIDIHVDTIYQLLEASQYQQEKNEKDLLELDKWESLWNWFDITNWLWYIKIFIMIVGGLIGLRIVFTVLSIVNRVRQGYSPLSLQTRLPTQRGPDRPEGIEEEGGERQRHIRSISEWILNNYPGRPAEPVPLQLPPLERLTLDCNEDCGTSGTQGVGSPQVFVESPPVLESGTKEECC
row,Compound,IC50
1,CC(C)(C)c1ccc(OCC(=O)NNC(=S)NC(=O)c2ccccc2[N+](=O)[O-])c(Br)c1,28.7 µM (active)
2,NS(=O)(=O)c1cc(C(=O)NC2CCSc3ccccc32)ccc1Cl (centres undefined),8.22 µM (active)
3,O=C(O)CN1C(=O)/C(=C\c2cc(Br)ccc2OCc2ccc(Cl)cc2Cl)SC1=S,13.1 µM (active)
4,CCCCCC(=O)Cc1cc(O)cc2c1C(=O)Oc1cc(O)c(C(=O)O)c(CCCCC)c1O2 [PHYSODIC ACID],4.1 µM (active)
